≈ marks a conversion by molar mass, not a printed value. Where only a bound is given, the exact number is not on record here.

The subject of experiment [1] is Dermatophyten, Schimmelpilze, Hefen. Nature of the experiment: Antimycotic in-vitro activity, serial dilution test, overall comparison with prior art. The format is cell-based. As to conditions: in-vitro Reihenverdünnungstest. As to the method: (§1) Versuchsbeschreibung: • Die in-vitro-Prüfungen wurden im Reihenverdünnungstest mit Keiminokula von durchschnittlich 5 x 10^4 Keimen/ml Substrat durchgeführt. Als Nährmedium dienten • a) für Dermatophyten und Schimmelpilze: Sabourand's milieu d'epreuve • b) für Hefen: • Fleischextrakt-Traubenzucker-Bouillon.
(§2) Die Bebrütungstemperatur betrug 20°C, die Bebrütungsdauer lag bei 24 bis 96 Stunden bei Hefen und 96 Stunden bei Dermatophyten und Schimmelpilzen.

Experiment [2] has as its system Candida-Zellen. In words: Antimycotic in-vivo activity (oral) in mouse candidosis. Set-up: species or system Mäuse vom Typ SPF-CF1. On the procedure:
Antimykotische in-vivo-Wirksamkeit (oral) bei Mäusecandidose
Mäuse vom Typ SPF-CF1 wurden intravenös mit 1 - 2 x 10^6 logarithmisch wachsenden Candida-Zellen, die in physiologischer Kochsalzlösung suspendiert werden, infiziert. Eine Stunde vor und sieben Stunden nach der Infektion werden die Tiere mit jeweils 50 - 100 mg/kg Körpergewicht der Präparate oral behandelt.
Unbehandelte Tiere starben 3 bis 6 Tage post infektionem. Die Überlebensrate am 6. Tag post infektionem betrug bei unbehandelten Kontrolltieren etwa 5 %.

The subject of experiment [3] is Trichophyton von mentagrophytes. In words: Antimycotic in-vivo activity (local) in experimental guinea pig trichophytosis. As to conditions: Meerschweinchen-Trichophytie, lokal. An excerpt: Antimikrobielle in-vivo-Wirksamkeit (lokal) am Modell der experimentellen Meerschweinchen-Trichophytie
Weiße Mäuse der Rasse Pirbright-white wurden auf dem geschorenen, nicht skarifizierten Rücken mit einer Mikro-und Makrokonidien-Suspension von Trichophyton von mentagrophytes infiziert.
Die infizierten Tieren wurden, beginnend mit dem 3. Tag p.i., 1 x täglich mit einer 15%-igen Lösung der erfindungsgemäßen Präparate (in Dimethylsulfoxid : Glycerin = 1 : 4) lokal behandelt.
Bei unbehandelten Tieren entwickelte sich innerhalb 12 Tagen p.i. das typische Bild einer Dermatophytose mit Rötung, Schuppung und Haarausfall bis zum totalen Integument-Defekt an der Infektionsstelle.

For experiment [4], the system named is Trichophyton mentagr. Nature of the experiment: Antimycotic in-vitro activity, serial dilution test (MIC). As to conditions: 96 h, Reihenverdünnungstest, 5 x 10^4 Keimen/ml Substrat, Sabourand's milieu d'epreuve, 20°C, 96 Stunden, read-out: MHK-Werte in γ/ml Nährmedium, Trichophyton mentagr. The format is cell-based. On the procedure: as §1, §2
Experiment [5] relates to Torulopsis glabrata. The description is as above. As to conditions: Nakaseomyces glabratus; Reihenverdünnungstest, 5 x 10^4 Keimen/ml Substrat, Fleischextrakt-Traubenzucker-Bouillon, 20°C, 24 bis 96 Stunden; read-out: MHK-Werte in γ/ml Nährmedium, Torulopsis glabrata. The class given is cell-based. On the procedure: as §1, §2
Experiment [6] relates to Aspergillus fumig. The experiment is described as above. The class given is cell-based. As to conditions: 96 h, Reihenverdünnungstest, 5 x 10^4 Keimen/ml Substrat, Sabourand's milieu d'epreuve, 20°C, 96 Stunden, read-out: MHK-Werte in γ/ml Nährmedium, Aspergillus fumig. As to the method: as §1, §2
Experiment [7] relates to Candida albicans. The experiment is described as above. As to conditions: Reihenverdünnungstest, 5 x 10^4 Keimen/ml Substrat, Fleischextrakt-Traubenzucker-Bouillon, 20°C, 24 bis 96 Stunden, read-out: MHK-Werte in γ/ml Nährmedium, Candida albicans. The class given is cell-based. As to the method: as §1, §2
In experiment [8] the test system is Microsporum canis. Described as above. The class given is cell-based. As to conditions: 96 h, Reihenverdünnungstest, 5 x 10^4 Keimen/ml Substrat, Sabourand's milieu d'epreuve, 20°C, 96 Stunden, read-out: MHK-Werte in γ/ml Nährmedium, Microsporum canis. On the procedure: as §1, §2

Turning to `CCCCC(C(O)C(C)(C)COc1ccc(Br)cc1)n1cncn1` (stereo not drawn) [Beispiel 46], the “antimykotische Wirkung im Vergleich zu den bekannten Verbindungen (A) und (B)” value in experiment [1] is recorded as “bessere antimykotische Wirkung”. In addition, in experiment [2] (Mäuse SPF-CF1, intravenös infiziert mit 1 - 2 x 10^6 Candida-Zellen, jeweils 50 - 100 mg/kg oral, 1 Stunde vor und 7 Stunden nach Infektion), the “Wirkung (Überlebende am 6.Tag p.i.)” value was “++++ (= gute Wirkung = 80 % Überlebende am 6.Tag p.i.)”. Also, in experiment [2] (Mäusecandidose, oral), the “Wirkung im Vergleich zu den bekannten Verbindungen (A) und (B)” value is listed as “bessere Wirkung”. For the same molecule, the Wirkung result in experiment [3] is “gute bis sehr gute Wirkung”. Further, the MIC in experiment [4] was below 1 µg/mL; in experiment [5] it was below 1 µg/mL; in experiment [6], 4 µg/mL (≈ 10.1 µM); in experiment [7], below 1 µg/mL; in experiment [8], below 1 µg/mL.

Source of the values: patent EP0083750A1, “Antimycotic azolyl butanols” (BAYER AG, priority 1981, dated 1983).
